Measured values published in patent publication US20140371165A1, “Identification of NSC23925 Isomers to Reverse Multidrug Resistance in Human Cancers” (priority 2012, published 2014).
Structures can show the parent of a compound that is named as a salt.

Experiments:
[1] = tested on: MCF-7adr; test: M30-Apoptosense ELISA apoptosis assay in MCF-7adr; type: cell-based, human; conditions: NSC23925b 1 μM with doxorubicin 0.5 μM, 72 hours
Method: (§1) Apoptosis was evaluated using the M30-Apoptosense ELISA assay kit (Peviva AB, Bromma, Sweden) according to the manufacturer's instructions. For the doxorubicin and NSC23925b treatment, MCF-7adr or SW480TR cells were seeded at 8,000 cells/per well in a 96-well plate for 24 hours before treatment. The cells were then treated with 0.5 μM of doxorubicin, 1 μM of NSC23925b, or a combination of the two drugs for an additional 72 hours. The cells were then lysed by an additional […] of 10% NP40 per well, following the manufacturer's instructions for apoptosis assay.
(§2) The effect of NSC23925b on the doxorubicin induction of apoptosis was assessed in MCF-7adr or SW480TR. cell lines. Cells were treated with either doxorubicin (0.5 μM) alone, NSC23925b (1 μM) alone, or a combination of doxorubicin and NSC23925b for 72 hours. Apoptosis was scored using the M30-Apoptosense ELISA assay.

[2] = tested on: MCF-7adr; test: MTT cytotoxicity assay and reversal of MDR in MCF-7adr; type: cell-based, human
Excerpt: (§3) A panel of parental cancer cell line and their daughter resistant cell lines, displaying MDR phenotype were used in this study. Human ovarian cancer cell line SKOV-3, breast cancer cell line MCF-7 and colon cancer cell line SW480, the osteosarcoma cell line U-2OS, KHOS, uterine sarcoma cell line MESSA and its doxorubicin selected drug resistant cell line MESSA/Dx5, non-small cell lung cancer cell line H-69 and its doxorubicin selected drug resistant cell line H-69AR (overexpress MRP1) were obtained from the ATCC (Rockville, Md.). Dr. Efstathios Gonos (Institute of Biological Research & Biotechnology, Athens, Greece) provided the doxorubicin resistant U-2OS R2 (referred in the text below as U-2OSDR), KHOS R2 cell lines. Dr. Erasmus Schneider (Wadsworth Center, Albany) provided the mitoxantrane resistant breast cancer MCF-7/MX (overexpress BCRP) cell line. All the cell lines were cultured in RPMI 1640 (Invitrogen, Carlsbad, Calif.) supplemented with 10% fetal bovine serum, 100-units/ml penicillin and 100 μg/ml streptomycin (Invitrogen). Cells were incubated at 37° C. in 5% CO2-95% air atmosphere and passaged when near confluent monolayers were achieved using 2% trypsin-EDTA solution. […] The fresh chemotherapy drugs were obtained from the pharmacy at the Massachusetts General Hospital and stored at −20° C.
(§4) To evaluate for reversal of Pgp-mediated MDR, SKOV-3TR, MCF-7adr and SW480TR cell lines were seeded into 96-well tissue culture plate at 2,000 cells per well with varying concentrations of chemotherapy drugs and NSC23925b for 6 days. Cell proliferation IC50 (concentration required for 50% inhibition) and MDR reversal IC50 were determined from dose-response curves carried out in triplicate in 96-well plate. Fold of reverse resistance for individual drugs were defined as the IC50 of MDR cells without NSC23925b treatment divided by the IC50 of MDR cells treated with NSC23925b. […] Drug cytotoxicity was assessed in vitro using the MTT assay as previously described. […] Response curves were fitted with use of GraphPad PRISM 4 software (GraphPad Software).
MCF-7adr and SW480TR cells were treated with paclitaxel (FIGS. 2A-B), doxorubicin (FIGS. 2C-D) or mitoxantrane (FIGS. 2E-F) and NSC23925b in RPMI1640 complete media at the indicated concentrations. The relative sensitivity of each line to the indicated drugs was determined by MTT analysis 6 days post-treatment.

[3] = tested on: SW480TR; test: M30-Apoptosense ELISA apoptosis assay in SW480TR; type: cell-based, human; conditions: NSC23925b 1 μM with doxorubicin 0.5 μM, 72 hours
Method: as §1, §2

[4] = tested on: H-69AR; test: MTT reversal of MRP1-mediated MDR in H-69AR; type: cell-based, human; conditions: non-Pgp expressing drug resistant cell line
[5] = tested on: SKOV-3TR xenograft tumors; test: SKOV-3TR xenograft tumor growth in nude mice
Method: The Crl:SHO-Prkdc^SCIDHr^hr nude female mice at approximately 3-4 weeks of age were purchased from The Charles River Laboratories (Ann Arbor, Mich.). Animal studies were carried out with protocols approved by the Massachusetts General Hospital Subcommittee on Research Animal Care (SRAC). To determine the effect of NSC23925b on paclitaxel sensitivity in xenograft model, 5×10^6 SKOV-3TR cells were injected subcutaneously with matrigel (BD Biosciences, San Jose, Calif.) on day one. Two weeks after injection, the mice were divided into four groups to start the treatments. Group one was received intraperitoneal (i.p) injection with normal saline, group two with paclitaxel (20 mg/kg), group three with NSC23925b (40 mg/kg). […] All four groups were treated twice a week for two weeks. The health of the mice and evidence of tumor growth were examined daily. Tumors were measured twice a week with a digital caliper. Tumor volume (mm^3) was calculated as (W^2×L)/2, where W is width and L is length. The curve of tumor growth was drawn according to tumor volume by using of GraphPad PRISM 4 software.
To further evaluate the effects of NSC23925b and paclitaxel combination therapy on the tumor growth of resistant cells, the growth of xenograft tumors were examined. A well-characterized ovarian cancer MDR cell line SKOV-3TR was chosen for in vivo studies. […] Tumors were measured twice a week with a digital caliper. Tumor volume (mm^3) was calculated as (W^2×L)/2, where W is width and L is length (FIG. 5A). Representative images of dissected tumor tissues from treated nude mice.

[6] = tested on: SKOV-3TR; test: MTT cytotoxicity assay and reversal of MDR in SKOV-3TR; type: cell-based, human
Excerpt: as §3, §4
Structure and activity relationship (SAR) of the four NSC23925 isomers for reversing MDR were evaluated in human ovarian cancer MDR cell line SKOV-3TR by MTT assay (FIGS. 1A-D). Cells were treated with the paclitaxel and NSC23925 diastereomers NSC23925a (FIG. 1A), NSC23925b (FIG. 1B), NSC23925c (FIG. 1C) and NSC23925d (FIG. 1D) in RPMI1640 complete media at the indicated concentrations. The relative sensitivity of each line to paclitaxel was determined by MTT analysis 6 days post-treatment.

COc1ccc(-c2cc([C@H](O)[C@H]3CCCCN3)c3ccccc3n2)cc1 [NSC23925b, (2-(4-methoxyphenyl)quinolin-4-yl)(piperidin-2-yl)methanol hydrochloride]
cell death / apoptosis, combination versus either drug alone [1]: significantly greater cell death
fold-reversal of drug resistance ([2]; Doxorubicin, NSC23925b 0.1 μM): 1.4 fold
fold-reversal of drug resistance ([2]; Doxorubicin, NSC23925b 0.5 μM): 4 fold
fold-reversal of drug resistance ([2]; Doxorubicin, NSC23925b 1 μM): 15 fold
reverse paclitaxel, doxorubicin, and mitoxantrane resistance ([2]; MTT 6 days post-treatment): able to reverse
fold-reversal of drug resistance ([2]; Mitoxantrane, NSC23925b 0.1 μM): 1.1 fold
fold-reversal of drug resistance ([2]; Mitoxantrane, NSC23925b 0.5 μM): 3 fold
fold-reversal of drug resistance ([2]; Mitoxantrane, NSC23925b 1 μM): 6 fold
fold-reversal of drug resistance ([2]; Paclitaxel, NSC23925b 0.1 μM): 1.3 fold
fold-reversal of drug resistance ([2]; Paclitaxel, NSC23925b 0.5 μM): 4 fold
fold-reversal of drug resistance ([2]; Paclitaxel, NSC23925b 1 μM): 12 fold
cell death / apoptosis, combination versus either drug alone [3]: significantly greater cell death
reversal of MRP1 mediated drug resistance [4]: unable to reverse drug resistance
reversal of resistance to paclitaxel in xenograft model ([5]; NSC23925b 50 mg/kg with paclitaxel): almost completely reverse resistance to paclitaxel
toxicity on the basis of animal weight and mortality ([5]; NSC23925b administered alone): no significant toxicity
effect on paclitaxel-induced toxicity ([5]; NSC23925b combined with paclitaxel): reducing paclitaxel-induced toxicity in some animals
inhibitory effect on tumor growth, combination versus single agents ([5]; NSC23925b with paclitaxel (20 mg/kg) i.p. twice a week for two weeks): significantly greater inhibitory effect
effect on paclitaxel resistant tumor cell growth, single agent ([5]; alone, i.p. twice a week for two weeks, paclitaxel 20 mg/kg or NSC23925b 40 mg/kg): no significant effects
fold-reversal of drug resistance ([6]; Doxorubicin, NSC23925b 0.1 μM): 2 fold
fold-reversal of drug resistance ([6]; Doxorubicin, NSC23925b 0.5 μM): 9 fold
fold-reversal of drug resistance ([6]; Doxorubicin, NSC23925b 1 μM): 32 fold
fold-reversal of drug resistance ([6]; Mitoxantrane, NSC23925b 0.1 μM): 1.2 fold
fold-reversal of drug resistance ([6]; Mitoxantrane, NSC23925b 0.5 μM): 2.6 fold
fold-reversal of drug resistance ([6]; Mitoxantrane, NSC23925b 1 μM): 8 fold
fold-reversal of drug resistance ([6]; Paclitaxel, NSC23925b 0.1 μM): 2 fold
fold-reversal of drug resistance ([6]; Paclitaxel, NSC23925b 0.5 μM): 7 fold
fold-reversal of drug resistance ([6]; Paclitaxel, NSC23925b 1 μM): 28 fold
potency of isomer on reversing drug resistance ([6]; with paclitaxel, MTT 6 days post-treatment): most potent isomer
